# Test results as given in patent EP0552018A1, “Use of Rifabutin for delaying or preventing mycobacterial infections” (Erbamont Inc., priority 1992, dated 1993).
# Assays:
# [1] = cited from earlier work
# [2] = system: Mycobacterium avium complex (MAC); assay: Multicenter, randomized, placebo controlled clinical trial: prevention or delay of MAC infection in AIDS patients; type: in vivo, human
# [3] = system: atypical mycobacterial infection; assay: Same clinical trial: occurrence of atypical mycobacterial infection; type: in vivo, human; details: rifabutin 300 mg/day; one patient on the placebo arm developed it
# M. tuberculosis = assay: Same clinical trial: occurrence of M. tuberculosis infections; type: in vivo, human; details: rifabutin 300 mg/day; three patients on the placebo arm developed M. tuberculosis infections
# Method: The efficacy of rifabutin on the prevention of MAC disease in HIV positive patients having a CD4 count of ≦200/mm³ was assessed in a large multicenter controlled trial in the United States.
# Five hundred ninety (590) patients with CD4 counts ≦200/mm³; and with no clinical evidence of MAC infection (as determined by two blood cultures) were randomly assigned to receive either rifabutin monotherapy (300 mg/day) or placebo. Nine of these patients, five in the rifabutin group and four in the placebo group, who were enrolled with presumptive negative evidence of MAC blood cultures were subsequently found to have had MAC bacteremia at baseline and were excluded from the study. Fifty-six of the 581 patients who had confirmed negative cultures at baseline developed MAC infection after having enrolled in the study. Eighteen of those 56 patients were in the rifabutin group and the other 38 were in the placebo group. After excluding seven patients from each group who were considered to be inevaluable, the treatment groups were compared with respect to the incidence of MAC infection; the observed difference was highly statistically significant (p=0.002, Chi-squared test).
# Three patients on the placebo arm of the study developed M. tuberculosis infections (other than MAC) while no patients receiving rifabutin developed tuberculosis. […]
smiles,measurement,setting,value
"CO[C@H]1/C=C/O[C@@]2(C)Oc3c(C)c(O)c4c(c3C2=O)C2=NC3(CCN(CC(C)C)CC3)NC2=C(NC(=O)/C(C)=C\C=C\[C@H](C)[C@H](O)[C@@H](C)[C@@H](O)[C@@H](C)[C@H](OC(C)=O)[C@@H]1C)C4=O [rifabutin, 4-dioxo-3,4-[2-spiro-(N-isobutyl-4-piperidyl)-2,5-dihydro-1H-imidazo]-rifamycin S]",Solubility in chloroform,[1]; chloroform,soluble
same,Solubility in methanol,[1]; methanol,soluble
same,Solubility in water,[1]; water,very slightly soluble
same,Patients who developed MAC infection after having enrolled in the study,"[2]; HIV positive patients, CD4 ≦200/mm³, rifabutin monotherapy 300 mg/day oral, of 581 patients with confirmed negative cultures at baseline, before excluding inevaluable patients",Eighteen
same,Time of MAC infection in patients who got a MAC infection,"[2]; analysis by Kaplan/Meier Methodology, compared with placebo",significantly later than patients on placebo
same,Likelihood of placebo patients to die or to experience a MAC event relative to patients receiving rifabutin,"[2]; at any point in time, on average, Kaplan/Meier analysis",2.3 times
same,Number of: Patients without MAC,"[2]; evaluable patients, rifabutin 300 mg/day, group total 280",269
same,Number of: Patients with MAC,"[2]; evaluable patients, rifabutin 300 mg/day, group total 280, vs placebo x^2 = 9.76, P ≅ 0.002",11
same,Patients who developed atypical mycobacterial infection,[3],no patients
same,Patients who developed tuberculosis,M. tuberculosis,no patients
